This note sets out measurements from ChEMBL document CHEMBL1155771, “Emergence of KPC-2 and KPC-3 in carbapenem-resistant Klebsiella pneumoniae strains in an Israeli hospital” (2007).

For test [1], the system named is Escherichia coli. The test can be described thus: Antibacterial activity against sEscherichia coli GeneHogs recipient strain without blaKPC-encoding plasmid.
Test [2] concerns Escherichia coli. Put plainly: Antibacterial activity against carbapenem-resistant blaKPC-encoding plasmid harboring Escherichia coli GeneHogs transformants of Klebsiella pneumoniae 469 producing KPC2, OXA4 and CTX-M-10 carbapenemases.
In test [3] the test system is Klebsiella pneumoniae. Put plainly: Antibacterial activity against carbapenem-resistant Klebsiella pneumoniae 490 isolate producing KPC3 and TEM1 carbapenemases. Type of test: functional.
In test [4] the test system is Escherichia coli. The test can be described thus: Antibacterial activity against carbapenem-resistant blaKPC-encoding plasmid harboring Escherichia coli GeneHogs transformant of Klebsiella pneumoniae 490 producing KPC3 and TEM1 carbapenemases.
Test [5] deals with Klebsiella pneumoniae. Put plainly: Antibacterial activity against carbapenem-resistant Klebsiella pneumoniae 469 isolate producing KPC2, OXA4 and CTX-M-10 carbapenemases. Type of test: functional.

In brackets after ≈: the same amount, converted by molar mass.

Take `C[C@H]1[C@H](NC(=O)/C(=N\OC(C)(C)C(=O)O)c2csc(N)n2)C(=O)N1S(=O)(=O)O` [AZTREONAM]: the MIC – broadly, the lowest concentration that inhibits growth of the organism – was < 1 µg/mL against Escherichia coli [1] and 32 µg/mL (≈ 73.5 µM) against Escherichia coli [2].
Turning to `NCC[C@H](O)C(=O)N[C@@H]1C[C@H](N)[C@@H](O[C@H]2O[C@H](CN)[C@@H](O)[C@H](O)[C@H]2O)[C@H](O)[C@H]1O[C@H]1O[C@H](CO)[C@@H](O)[C@H](N)[C@H]1O` [AMIKACIN], the MIC was > 64 µg/mL with Klebsiella pneumoniae [3]; < 2 µg/mL with Escherichia coli [1]; < 2 µg/mL in the test on Escherichia coli [4]; 4 µg/mL (≈ 6.83 µM) in the test on Klebsiella pneumoniae [5]; 16 µg/mL (≈ 27.3 µM) with Escherichia coli [2].
With `CCN1CCN(C(=O)N[C@@H](C(=O)N[C@@H]2C(=O)N3[C@@H]2SC(C)(C)[C@@H]3C(=O)O)c2ccccc2)C(=O)C1=O` [PIPERACILLIN], the MIC against Klebsiella pneumoniae [3] is > 128 µg/mL; against Escherichia coli [1], < 4 µg/mL; against Escherichia coli [4], > 128 µg/mL; against Klebsiella pneumoniae [5] it was > 128 µg/mL; with Escherichia coli [2], > 128 µg/mL.
In the case of `C[C@@H](O)[C@H]1C(=O)N2C(C(=O)O)=C(SCCNC=N)C[C@H]12` [IMIPENEM ANHYDROUS], the minimal inhibitory concentration (MIC) against Klebsiella pneumoniae [3] was 32 µg/mL (≈ 107 µM); against Escherichia coli [1] it was < 0.25 µg/mL; with Escherichia coli [4], 4 µg/mL (≈ 13.4 µM); in the test with Klebsiella pneumoniae [5] it was 16 µg/mL (≈ 53.4 µM); against Escherichia coli [2] it was 4 µg/mL (≈ 13.4 µM).
On to `C[C@@H](O)[C@H]1C(=O)N2C(C(=O)O)=C(S[C@@H]3CN[C@H](C(=O)Nc4cccc(C(=O)O)c4)C3)[C@H](C)[C@H]12`, for which the MIC is 64 µg/mL (≈ 135 µM) against Klebsiella pneumoniae [3]; < 0.25 µg/mL against Escherichia coli [1]; 2 µg/mL (≈ 4.21 µM) against Escherichia coli [4]; 16 µg/mL (≈ 33.6 µM) in the test on Klebsiella pneumoniae [5]; 4 µg/mL (≈ 8.41 µM) in the test on Escherichia coli [2].
For `O=C(O)c1cn(C2CC2)c2cc(N3CCNCC3)c(F)cc2c1=O` [CIPROFLOXACIN], in the test on Escherichia coli [1], the MIC was < 0.25 µg/mL.
Regarding `CO/N=C(\C(=O)N[C@@H]1C(=O)N2C(C(=O)[O-])=C(C[N+]3(C)CCCC3)CS[C@H]12)c1csc(N)n1`, the minimum inhibitory concentration (MIC) in the test on Klebsiella pneumoniae [3] is > 64 µg/mL; against Escherichia coli [1] it was < 1 µg/mL; against Klebsiella pneumoniae [5] it was > 64 µg/mL.
Turning to `CC(C)(O/N=C(\C(=O)N[C@@H]1C(=O)N2C(C(=O)[O-])=C(C[n+]3ccccc3)CS[C@H]12)c1csc(N)n1)C(=O)O` [CEFTAZIDIME], the minimal inhibitory concentration (MIC) with Klebsiella pneumoniae [3] is > 64 µg/mL; in the test with Escherichia coli [1] it was < 1 µg/mL; in the test with Escherichia coli [4] it was 16 µg/mL (≈ 29.3 µM); in the test with Klebsiella pneumoniae [5] it was > 64 µg/mL; against Escherichia coli [2] it was > 64 µg/mL.
As to `CN(C)c1cc(NC(=O)CNC(C)(C)C)c(O)c2c1C[C@H]1C[C@H]3[C@H](N(C)C)C(O)=C(C(N)=O)C(=O)[C@@]3(O)C(O)=C1C2=O` [TIGECYCLINE], the minimum inhibitory concentration (MIC) was found to be 2 µg/mL (≈ 3.41 µM) in the test on Klebsiella pneumoniae [3]; 0.016 µg/mL (≈ 0.0273 µM) with Escherichia coli [1]; 0.5 µg/mL (≈ 0.854 µM) with Escherichia coli [4]; 2 µg/mL (≈ 3.41 µM) in the test with Klebsiella pneumoniae [5]; 0.5 µg/mL (≈ 0.854 µM) against Escherichia coli [2].
In the case of `C[C@@H](O)[C@H]1C(=O)N2C(C(=O)O)=C(S[C@@H]3CN[C@H](C(=O)N(C)C)C3)[C@H](C)[C@H]12` [MEROPENEM], the MIC in the test on Klebsiella pneumoniae [3] was 32 µg/mL (≈ 83.4 µM); against Escherichia coli [1], < 0.25 µg/mL; against Escherichia coli [4], 2 µg/mL (≈ 5.22 µM); in the test with Klebsiella pneumoniae [5] it was 8 µg/mL (≈ 20.9 µM); with Escherichia coli [2], 4 µg/mL (≈ 10.4 µM).
On the same counts, the results for `CO/N=C(\C(=O)N[C@@H]1C(=O)N2C(C(=O)O)=C(CSc3nc(=O)c(O)nn3C)CS[C@H]12)c1csc(N)n1` [CEFTRIAXONE] are > 64 µg/mL, < 1 µg/mL, 8 µg/mL (≈ 14.4 µM), > 64 µg/mL and > 64 µg/mL.
For COLISTIN, the MIC with Klebsiella pneumoniae [3] and against Klebsiella pneumoniae [5] was 0.25 µg/mL in each case.
